Key:
[1] = tested on: Salmonella typhimurium TA1535; assay: Ames test, strain TA1535; assay type: cell-based; conditions: with and without metabolic activation; base-pair substitution strain; note: key: +: Plus sign indicates observed mutagenic effects; −: minus sign indicates non-mutagenic property
Description: (§1) In each Ames test, a single chemical substance was evaluated in the four standard Salmonella typhimurium tester strains, TA1535, TA1537, TA98, and TA100. Strains TA1535 and TA100 identify mutagens that act via base-pair substitution whereas TA1537 and TA98 identify mutagens capable of causing frameshifts in the DNA. The bacterial strain E. coli WP2uvrA was also included as another sensitive tester strain. Each test was conducted with and without metabolic activation.

E. coli WP2uvrA = assay type: cell-based
Description: as §1

[2] = tested on: Salmonella typhimurium TA100; assay: Ames test, strain TA100; assay type: cell-based; conditions: with and without metabolic activation; base-pair substitution strain; note: key: +: Plus sign indicates observed mutagenic effects; −: minus sign indicates non-mutagenic property
Description: as §1

[3] = tested on: Salmonella typhimurium TA1537; assay: Ames test, strain TA1537; assay type: cell-based; conditions: with and without metabolic activation; frameshift strain; note: key: +: Plus sign indicates observed mutagenic effects; −: minus sign indicates non-mutagenic property
Description: as §1

[4] = tested on: Salmonella typhimurium TA98; assay: Ames test, strain TA98; assay type: cell-based; conditions: with and without metabolic activation; frameshift strain; note: key: +: Plus sign indicates observed mutagenic effects; −: minus sign indicates non-mutagenic property
Description: as §1

rats = assay: Acute oral toxicity, limit dose; assay type: in vivo
Description: No rats died after the administration of an oral limit dose of 5000 mg/kg of products from Example 1(B). Clinical signs were minimal and all rats fully recovered by day 3. The acute oral LD50 was greater than 5000 mg/kg.

Molecule | Ames test result TA1535 [1] | Ames test result WP2uvrA (E. coli WP2uvrA) | Ames test result TA100 [2] | Ames test result TA1537 [3] | Ames test result TA98 [4] | acute oral LD50 (rats; oral) | mortality after oral limit dose (rats; oral limit dose of 5000 mg/kg) | clinical signs after oral limit dose (rats; oral limit dose of 5000 mg/kg, all rats fully recovered by day 3)
O=P(OCC(CBr)(CBr)CBr)(OC(CCl)CCl)OC(CCl)CCl [Phosphoric acid, 3-bromo-2,2-bis(bromomethyl)propyl bis[2-chloro-1-(chloromethyl)ethyl]ester] | − | − | + | − | − |  |  | 
CC(C)(C)c1ccccc1OP(=O)(OC(CCl)CCl)OC(CCl)CCl [O-tert-Butylphenyl bis(1,3-dichloro-2-propyl)phosphate] | + | − | + | − | − |  |  | 
tribromoneopentyl bis(isobutyl)phosphate [Products of 1(B)] | − | − | − | − | − | greater than 5000 mg/kg | No rats died | minimal
